Experimental findings from patent US20050058745A1, “Use of Labiatae herb preparations for extending the flavor shelf life of malt beverages” (priority 2003, published 2005) are described below.

“Also recorded” adds a separate entry of the source.

Data set [1] can be described thus: Stability of RA in 9.5% tetrahydroisohumulone solution at pH 8. It counts as physicochemical. Particulars: pH 8, room temperature. The protocol:
A solution of rosmarinic acid in 9.5% tetrahydroisohumulone at pH 8 was prepared and allowed to stand at room temperature for an extended period of time to determine stability.

Data set [2] is described as follows: Flavor stability of flavored malt beverage. Particulars: 10 ppm CA and 5 ppm CN; 10 ppm RA. The protocol: To a flavored malt beverage 10 ppm CA and 5 ppm CN, is added, and the beverage aged. To the same beverage, 10 ppm RA is added. […] When RA is added to the CA and or CN, an improvement is observed.
A short description of data set [3]: Scaling sensory panel for staling, model citrus beverage. The note with it: for Panelist staling Average (0 fresh, 10 most stale): 50 ppm (RA/CA: 50 ppm each). The protocol: Carbon filtered water was carbonated to 3.5 to 4 times the volume of beer. 59.2 ml of syrup was added to each 355 ml bottle. Each bottle was individually dosed with the treatments listed in Table 22 by adding 1.775 mL of a 1% (weight/volume) solution of carnosol or rosmarinic acid in ethanol to give 50 ppm of each. The bottle was filled to approximately 355 ml with carbonated water before it was capped and inverted. Fresh samples were stored in the refrigerator (0° C.). Heat exposed samples were aged in the oven (32° C.) for seven days. The sensory data were taken in the following manner. Each sample (controls and treatments) was presented to the panelists one time. Panelists rated the beers on a scale of 0-10, with 0 being fresh and 10 being most stale. Panelists were given examples of a fresh and stale material prior to the panel for training on these characteristics. Since the output of the panel as a whole was desired, and not any one individual panelist, the means of each treatment sample in each replicate groups were calculated and tabulated as in Table 24. […] These diluted samples best represent the loss in flavor that occurs when the sample is thermally aged. […] Statistical analysis consisted of doing paired t-Tests on the treatment sample vs. the aged control sample (Table 25). One-tailed tests were used that probed the question whether the […] values of one treatment were lower than that of the other (e.g treatment vs. control). Confidence levels were reported along with p values.

Take `O=C(/C=C/c1ccc(O)c(O)c1)O[C@H](Cc1ccc(O)c(O)c1)C(=O)O` [RA, rosmarinic acid]: the “% Rosmarinic Acid in Solution” value in data set [1] (0 days) is on record as 12.07%; in data set [1] (3 days), 12.45%; in data set [1] (5 days), 12.40%; in data set [1] (15 days), 12.12%; in data set [1] (38 days) it was 11.36%; in data set [1] (54 days) it was 11.74%. In addition, the “% Rosmarinic Acid in Solution” value in data set [1] (86 days) was found to be 10.88%. Further, the “stability in hop acid solution” value in data set [1] is given as “stable in this formulation for at least three months; also recorded: very stable in the hop acid solution”. Also, in data set [2], the “flavor stability of aged flavored malt beverage” value was “only slightly better than the control”. The “Panelist staling Average (0 fresh, 10 most stale)” value in data set [3] (Aged (32° C., seven days)) is given as 6.17; in data set [3] (Fresh), 0.67. Besides, the “flavor stabilization in model citrus beverage” value in data set [3] (scaling study of staling) is given as “not an effect flavor stabilizer”.
